Key:
Format in all cases: cell-based, human
HeLa cells [1] = test: Changes in microtubule structure in HeLa cells (immunofluorescence, confocal microscopy); conditions: FIG. 5
Experimental: HeLa cells were plated on the Lab-TekII Chambered Coverglass (Nunc), and were subjected to:
(1) treatment for 16 hours with 1 μM Paclitaxel (Sigma), a microtubule polymerizing agent;
(3) the introduction of HDAC6 antisense oligonucleotide No. 4 at a final concentration of 200 nM with OligofectAMINE followed by a 24-hour culture.
Then, Lab-TekII Chambered Coverglass was washed with 0.1 M PIPES (pH 6.9), the cells were fixed in 0.5% glutaraldehyde/0.1 M PIPES (pH 6.9) for 10 minutes, washed three times with PBS, permealized three times with 0.5% Triton X100/PBS for 5 minutes each, washed three times with PBS, treated three times with 2.5 mg/ml sodium borohydride/50% ethanol for 10 minutes each, washed three times with PBS, blocked with 10% normal goat serum/PBS, reacted with a primary antibody (a) anti-acetylated α-tubulin antibody (clone 6-11B-1, Sigma) or (b) anti-α-tubulin antibody (clone DM lA, Sigma)/PBS for 1 hour, washed three times with 0.1% Tween 20/PBS, reacted with a second antibody Alexa Fluor 488-conjugated anti-mouse IgG (Molecular Probe)/PBS for 30 minutes, and washed three times with 0.1% Tween 20/PBS, and then examined under a conforcal laser scanning microscope (Carl Zeiss).

HeLa cells [2] = test: Microtubule stability against Colcemid in HeLa cells (immunofluorescence); conditions: pretreated (1 μM 16 hours, or 200 nM oligonucleotide 24 hours), then 1 μM Colcemid 15 minutes, FIG. 11
Experimental: (3) the introduction of HDAC6 antisense oligonucleotide No. 16 at a final concentration of 200 nM with OligofectAMINE followed by a 24-hour culture.
Then, Lab-TekII Chambered Coverglass was washed with 0.1 M PIPES (pH 6.9), the cells were fixed in 0.5% glutaraldehyde/0.1 PIPES (pH 6.9) for 10 minutes, washed three times with PBS, permealized three times with 0.5% Triton X100/PBS for 5 minutes each, washed three times with PBS, treated three times with 2.5 mg/ml sodium borohydride/50% ethanol for 10 minutes each, washed three times with PBS, blocked with 10% normal goat serum/PBS, reacted with a primary antibody rat anti-α-tubulin monoclonal antibody (MAB1864; CHEMICON)/PBS for 1 hour, washed three times with 0.1% Tween 20/PBS, reacted with a second antibody Alexa Fluor 488-conjugated anti-rat IgG (Molecular Probe)/PBS for 30 minutes, and washed three times with 0.1% Tween 20/PBS, and then examined under a conforcal laser scanning microscope (Carl Zeiss).

HDAC6 [3] = test: Suppression of HDAC6 protein expression in HeLa cells (Western blot); conditions: for production of HDAC6, changing treatment time: 200 nM, 24, 30, 36 and 48 hours, FIG. 4
HDAC6 [4] = test: Suppression of HDAC6 protein expression in HepG2, SW480, LoVo and Calu-1 cells (Western blot); conditions: HepG2, SW480, LoVo, Calu-1 cells; 200 nM, 48 hours; FIG. 8
acetylated α-tubulin = test: Acetylation of α-tubulin in HeLa cells (Western blot); conditions: 200 nM, 24, 30, 36 and 48 hours, FIG. 4
Experimental: The each synthesized antisense oligonucleotide was dissolved in sterile water, and was introduced into HeLa cells using the OligofectAMINE (Invitrogen) according to an attached protocol. The 1.5×10^5 HeLa cells were plated in a 6-well plate, the final concentration of antisense oligonucleotide was set at 200 nM, and OligofectAMINE was used at 3 μl/well.
[…] After the cells were lysed with a SDS-PAGE sample buffer (BPB-free) and protein concentration was determined, the cell lysate at 25 μg/lane was separated by SDS-PAGE, transferred to a PVDF membrane, and immunoblotted with anti-acetylated α-tubulin antibody (clone 6-11B-1, Sigma), anti-α-tubulin antibody (clone DMlA, Sigma) or anti-HDAC6 antibody (H-300, Santa Cruz).

HeLa cells [5] = test: Induction of apoptosis in HeLa cells (Annexin V-PE, FACS); conditions: 200 nM, 24 to 48 hours, FIG. 6
Experimental: (§1) HeLa cells (1.5×10^5/well) were plated into a 6-well plate with MEM medium containing 10% FCS and 1× nonessential amino acids. HDAC6 antisense oligonucleotide No. 4, 5, 6 or 16 at the final concentration of 200 nM or the control oligonucleotide was introduced into the cells with OligofectAMINE at 3 μl/well, and the cells were treated for 24 hours, 30 hours, 36 hours, or 48 hours. The cells were detached by trypsin treatment and collected, and stained with Annexin V-PE (Becton Dickinson) according to a protocol attached, and analyzed using the FACS caliber (Becton Dickinson).
Thus, the collected cells were washed with PBS, suspended in 100 μl of the binding buffer (Becton Dickinson), to which suspension 5 μl of Annexin V-PE was added and incubated for 15 minutes, and the binding buffer was added to make a total volume of 500 μl. This was subjected to FACS analysis.

HeLa cells [6] = test: Depolarization of mitochondrial membrane potential in HeLa cells (JC-1, FACS); conditions: 200 nM, 24, 36 or 48 hours, FIG. 7
Experimental: as §1, with “5” for “5, 6”, “hours,” for “hours, 30 hours,”, “hours” for “hours,”, “Mitochondrial potential sensor JC-1 (Molecular Probes) was added to the medium at the final concentration of 10 μg/ml and the cells were further caltivated at 37° C. for 10 minutes. Ten minutes later, the” for “The”, “and” for “and stained with Annexin V-PE (Becton Dickinson) according to a protocol attached, and”
Therefore, in order to detect the cells in which mitochondrial membrane potential is depolarized, the ratio of green fluorescence-positive cells was graphically shown and used as an index of apoptosis.

CC(=O)O[C@H]1C(=O)[C@@]2(C)[C@H]([C@H](OC(=O)c3ccccc3)[C@]3(O)C[C@H](OC(=O)[C@H](O)[C@@H](NC(=O)c4ccccc4)c4ccccc4)C(C)=C1C3(C)C)[C@]1(OC(C)=O)CO[C@@H]1C[C@@H]2O [Paclitaxel]
microtubule structure, stained with anti-acetylated α-tubulin antibody (HeLa cells [1]; 1 μM, 16 hours): hyperpolymerized microtubules from the centromere were observed | microtubule structure, stained with anti-α-tubulin antibody (HeLa cells [1]; 1 μM, 16 hours): hyperpolymerized microtubules were observed in the periphery of the nucleus | microtubules after Colcemid in pretreated cells (HeLa cells [2]): the remaining of the polymerized microtubules was observed

control oligo: control oligonucleotide CCTCTTACCT CAGTTACAAT, from abnormal splicing site 705 of β globin pre-mRNA; no specific target in normal cells (antisense CCTCTTACCTCAGTTACAAT; all phosphorothioate, sugars by position and methylation of C not given here)
amount of expressed HDAC6 protein (HDAC6 [3]; 200 nM oligonucleotide, 48 hours after introduction, FIG. 3): did not have any activity of causing the reduction of HDAC6 protein expression | amount of expressed HDAC6 (HDAC6 [4]): did not have any activity of causing the reduction of HDAC6 protein expression

antisense oligonucleotide 5: phosphorothioated HDAC6 antisense oligonucleotide GCTGCCTGGT TGTGGTGGAA, complementary to a sequence downstream of ATG (antisense GCTGCCTGGTTGTGGTGGAA; all phosphorothioate, sugars by position and methylation of C not given here)
production of HDAC6, changing treatment time (HDAC6 [3]): inhibits the production of HDAC6 | acetylation of α-tubulin, changing treatment time (acetylated α-tubulin): the acetylation of α-tubulin was enhanced at any time | apoptosis judged by Annexin V positivity (HeLa cells [5]): induces apoptosis | mitochondrial depolarization judged by JC-1 staining (HeLa cells [6]): induces mitochondrial depolarization

antisense oligonucleotide 6: phosphorothioated HDAC6 antisense oligonucleotide TTTATTACAT ATGCAACCTT, upstream sequence comprising the polyadenylation signal; used as negative control (antisense TTTATTACATATGCAACCTT; all phosphorothioate, sugars by position and methylation of C not given here)
production of HDAC6, changing treatment time (HDAC6 [3]): inhibits the production of HDAC6 | acetylation of α-tubulin, changing treatment time (acetylated α-tubulin): enhances the acetylation of α-tubulin

CC(/C=C/C(=O)NO)=C\[C@@H](C)C(=O)c1ccc(N(C)C)cc1 [Trichostatin A]
microtubule structure (HeLa cells [1]; 1 μM Trichostatin A 16 hours or 200 nM antisense oligonucleotide 24 hours): images of polymerized microtubules were observed throughout the cytoplasm | microtubules after Colcemid in pretreated cells (HeLa cells [2]): the remaining of the polymerized microtubules was observed

From patent US20080213813A1, “Histone deacetylase inhibitor and use thereof” (priority 2002, published 2008)
